Read-outs that look alike come from different tables or passages of the source.
Target: T1, human GluN1/GluN2B NMDA receptors (Homo sapiens, UniProt Q13224)
T1 construct: expressed in transfected cells
Test: Cell-based calcium flux (FLIPR) assay on cloned human NR1/NR2B ion channels expressed in mammalian cells (standard and HTS buffer variants);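 note: stable Tet-On inducible cell line, Ca2+ influx triggered by glutamate at about EC40 plus 10 µM glycine, fluorescent dye read-out over 5 min, normalized to control wells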
Conditions: read-out: NR2B IC50 (μM) standard assay

[1] = standard assay buffer (0.5 mM MgCl2 dye loading; 137 mM NaCl, 4 mM KCl assay buffer), human GluN1/GluN2B cells
[2] = standard assay buffer (0.5 mM MgCl2 in dye loading buffer; 137 mM NaCl, 4 mM KCl in assay buffer), human GluN1/GluN2B

T1 sequence (Q13224 27-1484, other chains not shown): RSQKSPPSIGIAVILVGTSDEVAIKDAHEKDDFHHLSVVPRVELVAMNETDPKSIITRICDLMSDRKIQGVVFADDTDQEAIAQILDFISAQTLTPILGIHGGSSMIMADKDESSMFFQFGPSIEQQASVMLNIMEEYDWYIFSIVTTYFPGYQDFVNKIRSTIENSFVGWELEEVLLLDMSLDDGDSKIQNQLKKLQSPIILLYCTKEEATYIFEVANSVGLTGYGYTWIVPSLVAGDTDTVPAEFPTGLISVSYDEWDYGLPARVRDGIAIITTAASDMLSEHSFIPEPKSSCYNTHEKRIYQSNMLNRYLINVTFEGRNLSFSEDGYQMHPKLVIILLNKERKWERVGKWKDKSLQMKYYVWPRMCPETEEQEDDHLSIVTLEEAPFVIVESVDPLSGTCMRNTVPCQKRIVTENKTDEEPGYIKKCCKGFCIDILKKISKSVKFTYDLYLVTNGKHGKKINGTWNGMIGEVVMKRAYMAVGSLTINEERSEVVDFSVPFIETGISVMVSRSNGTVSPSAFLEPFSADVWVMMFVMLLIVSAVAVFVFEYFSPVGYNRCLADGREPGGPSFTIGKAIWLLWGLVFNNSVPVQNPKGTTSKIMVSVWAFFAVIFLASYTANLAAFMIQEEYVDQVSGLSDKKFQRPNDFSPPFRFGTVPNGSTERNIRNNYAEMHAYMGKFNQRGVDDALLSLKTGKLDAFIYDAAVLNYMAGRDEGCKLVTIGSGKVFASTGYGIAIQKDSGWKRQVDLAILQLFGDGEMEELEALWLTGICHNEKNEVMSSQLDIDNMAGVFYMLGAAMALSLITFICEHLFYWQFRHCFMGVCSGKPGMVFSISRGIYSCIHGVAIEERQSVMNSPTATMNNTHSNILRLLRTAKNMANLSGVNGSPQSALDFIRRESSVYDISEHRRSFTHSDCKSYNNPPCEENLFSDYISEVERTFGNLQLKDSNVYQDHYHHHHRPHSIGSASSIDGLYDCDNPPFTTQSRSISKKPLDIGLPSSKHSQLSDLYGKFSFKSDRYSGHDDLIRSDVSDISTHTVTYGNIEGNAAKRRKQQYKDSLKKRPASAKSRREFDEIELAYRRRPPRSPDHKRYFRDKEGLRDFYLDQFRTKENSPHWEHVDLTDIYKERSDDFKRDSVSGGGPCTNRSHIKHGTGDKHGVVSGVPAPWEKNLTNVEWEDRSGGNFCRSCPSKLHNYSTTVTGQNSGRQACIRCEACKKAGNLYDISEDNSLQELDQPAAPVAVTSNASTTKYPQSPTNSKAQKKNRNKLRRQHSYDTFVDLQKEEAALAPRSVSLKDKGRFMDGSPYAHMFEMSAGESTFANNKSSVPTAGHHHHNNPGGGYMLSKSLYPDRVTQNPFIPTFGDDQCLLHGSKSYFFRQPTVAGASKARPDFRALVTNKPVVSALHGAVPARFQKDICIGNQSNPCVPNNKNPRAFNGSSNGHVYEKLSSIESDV

Row | IC50 [1] [µM] | IC50 [2] [µM] | Structure (SMILES)
1 |  | 0.034 | Cc1c(F)ccc(-c2cnc3c(c2)n(Cc2cccnc2)c(=O)n3C)c1F [Example 339, 6-(2,4-Difluoro-3-methyl-phenyl)-3-methyl-1-(3-pyridylmethyl)imidazo[4,5-b]pyridin-2-one]
2 | 0.022 |  | O=c1[nH]c2ncc(-c3cccc(C(F)F)c3)cc2n1Cc1cncc(F)c1 [Example 302, 6-[3-(Difluoromethyl)phenyl]-1-[(5-fluoro-3-pyridyl)methyl]-3H-imidazo[4,5-b]pyridin-2-one]
3 |  | 0.126 | CN(C)C(=O)Cn1c(=O)n(C)c2ncc(-c3cc(F)cc(F)c3)cc21 [Example 428, 2-[6-(3,5-Difluorophenyl)-3-methyl-2-oxo-imidazo[4,5-b]pyridin-1-yl]-N,N-dimethyl-acetamide]
4 | 0.128 |  | Cc1cncc(Cn2c(=O)[nH]c3ncc(-c4ccc(F)c(C)c4)cc32)c1 [Example 269, 6-(4-Fluoro-3-methyl-phenyl)-1-[(5-methyl-3-pyridyl)methyl]-3H-imidazo[4,5-b]pyridin-2-one]
5 |  | 0.013 | Cc1c(F)ccc(-c2cnc3c(c2)n(CC(=O)N2CC(F)(F)C2)c(=O)n3C)c1F [Example 414, 1-[2-(3,3-Difluoroazetidin-1-yl)-2-oxo-ethyl]-6-(2,4-difluoro-3-methyl-phenyl)-3-methyl-imidazo[4,5-b]pyridin-2-one]
6 | 0.133 |  | Cn1c(=O)n(Cc2cncnc2)c2cc(-c3cccc(C(F)(F)F)c3)cnc21 [Example 247, 3-Methyl-1-(pyrimidin-5-ylmethyl)-6-[3-(trifluoromethyl)phenyl]imidazo[4,5-b]pyridin-2-one]
7 |  | 0.107 | Cn1c(=O)n(Cc2cncc(F)c2)c2cc(-c3cccc(Cl)c3F)cnc21 [Example 349, 6-(3-Chloro-2-fluoro-phenyl)-1-[(5-fluoro-3-pyridyl)methyl]-3-methyl-imidazo[4,5-b]pyridin-2-one]
8 |  | 0.144 | Cn1c(=O)n(Cc2cccnc2)c2cc(-c3cc(F)c(F)c(F)c3)cnc21 [Example 353, 3-Methyl-1-(3-pyridylmethyl)-6-(3,4,5-trifluorophenyl)imidazo[4,5-b]pyridin-2-one]
9 |  | 0.008 | Cc1c(F)ccc(-c2cnc3c(c2)n(CC(=O)N2CCC2)c(=O)n3C)c1F [Example 409, 1-[2-(Azetidin-1-yl)-2-oxo-ethyl]-6-(2,4-difluoro-3-methyl-phenyl)-3-methyl-imidazo[4,5-b]pyridin-2-one]
10 |  | 0.225 | Cn1c(=O)n(Cc2cncc(F)c2)c2cc(-c3cccc(F)c3F)cnc21 [Example 346, 6-(2,3-Difluorophenyl)-1-[(5-fluoro-3-pyridyl)methyl]-3-methyl-imidazo[4,5-b]pyridin-2-one]

The next lines start with the compound.

Row | Structure (SMILES) | IC50 [1] [µM] | IC50 [2] [µM]
11 | Cc1cc(C)cc(-c2cnc3[nH]c(=O)n(CCN4CC(F)C4)c3c2)c1 [Example 183, 6-(3,5-Dimethylphenyl)-1-[2-(3-fluoroazetidin-1-yl)ethyl]-3H-imidazo[4,5-b]pyridin-2-one] | 2.08 | 
12 | Cc1ccc(-c2cnc3c(c2)n(Cc2csnn2)c(=O)n3C)s1 [Example 556, 3-Methyl-6-(5-methyl-2-thienyl)-1-(thiadiazol-4-ylmethyl)imidazo[4,5-b]pyridin-2-one] |  | 0.363
13 | Cn1c(=O)n(CC(=O)N2CC(F)(F)C2)c2cc(-c3ccc(F)c(OC(F)F)c3)cnc21 [Example 590, 1-[2-(3,3-Difluoroazetidin-1-yl)-2-oxo-ethyl]-6-[3-(difluoromethoxy)-4-fluoro-phenyl]-3-methyl-imidazo[4,5-b]pyridin-2-one] |  | 0.025
14 | Cc1cccc(-c2cnc3c(c2)n(CC(=O)N2CC(F)(F)C2)c(=O)n3C)c1F [Example 418, 1-[2-(3,3-Difluoroazetidin-1-yl)-2-oxo-ethyl]-6-(2-fluoro-3-methyl-phenyl)-3-methyl-imidazo[4,5-b]pyridin-2-one] |  | 0.019
15 | O=C(Cn1c(=O)[nH]c2ncc(-c3cccc(C(F)(F)F)c3)cc21)NC1CC(F)(F)C1 [Example 195, N-(3,3-Difluorocyclobutyl)-2-[2-oxo-6-[3-(trifluoromethyl)phenyl]-3H-imidazo[4,5-b]pyridin-1-yl]acetamide] | 0.007 | 
16 | Cn1c(=O)n(CC(=O)N2CCCC2)c2cc(-c3cccc(C(F)(F)F)c3)cnc21 [Example 197, 3-Methyl-1-(2-oxo-2-pyrrolidin-1-yl-ethyl)-6-[3-(trifluoromethyl)phenyl]imidazo[4,5-b]pyridin-2-one] | 0.205 | 
17 | CC1(NC(=O)Cn2c(=O)[nH]c3ncc(-c4cccc(C(F)(F)F)c4)cc32)CC(F)(F)C1 [Example 209, N-(3,3-Difluoro-1-methyl-cyclobutyl)-2-[2-oxo-6-[3-(trifluoromethyl)phenyl]-3H-imidazo[4,5-b]pyridin-1-yl]acetamide] | 0.443 | 
18 | O=C(Cn1c(=O)[nH]c2ncc(-c3cccc(C(F)(F)F)c3)cc21)NC1COC1 [Example 192, N-(Oxetan-3-yl)-2-[2-oxo-6-[3-(trifluoromethyl)phenyl]-3H-imidazo[4,5-b]pyridin-1-yl]acetamide] | 0.052 | 
19 | Cc1cccc(-c2cnc3[nH]c(=O)n(CCN4CCC4)c3c2)c1C [Example 169, 1-[2-(Azetidin-1-yl)ethyl]-6-(2,3-dimethylphenyl)-3H-imidazo[4,5-b]pyridin-2-one] | 0.217 | 
20 | Cc1cc(Cn2c(=O)[nH]c3ncc(-c4ccc(F)cc4C)cc32)no1 [Example 522, 6-(4-Fluoro-2-methyl-phenyl)-1-[(5-methylisoxazol-3-yl)methyl]-3H-imidazo[4,5-b]pyridin-2-one] |  | 0.034
21 | COc1ccc(-c2cnc3[nH]c(=O)n(CC(=O)c4cccs4)c3c2)cc1 [Example 461, 6-(4-Methoxyphenyl)-1-[2-oxo-2-(2-thienyl)ethyl]-3H-imidazo[4,5-b]pyridin-2-one] |  | 0.054
22 | Cn1c(=O)n(CC(=O)N2CC(F)C2)c2cc(-c3cccc(Cl)c3)cnc21 [Example 406, 6-(3-Chlorophenyl)-1-[2-(3-fluoroazetidin-1-yl)-2-oxo-ethyl]-3-methyl-imidazo[4,5-b]pyridin-2-one] |  | 0.016
23 | CN(C)C(=O)Cn1c(=O)n(C)c2ncc(-c3ccc(C(F)(F)F)s3)cc21 [Example 28, N,N-Dimethyl-2-[3-methyl-2-oxo-6-[5-(trifluoromethyl)-2-thienyl]imidazo[4,5-b]pyridin-1-yl]acetamide] | 0.034 | 
24 | Cc1cc(F)ccc1-c1cnc2[nH]c(=O)n(CCN3CC(F)C3)c2c1 [Example 187, 1-[2-(3-Fluoroazetidin-1-yl)ethyl]-6-(4-fluoro-2-methyl-phenyl)-3H-imidazo[4,5-b]pyridin-2-one] | 1.19 | 
25 | O=c1[nH]c2ncc(-c3cccc(C(F)(F)F)c3)cc2n1Cc1ncc(F)cn1 [Example 256, 1-[(5-Fluoropyrimidin-2-yl)methyl]-6-[3-(trifluoromethyl)phenyl]-3H-imidazo[4,5-b]pyridin-2-one] | 0.134 | 
26 | O=c1[nH]c2ncc(-c3cccc(C(F)(F)F)c3)cc2n1Cc1cncc(C(F)(F)F)c1 [Example 259, 6-[3-(Trifluoromethyl)phenyl]-1-[[5-(trifluoromethyl)-3-pyridyl]methyl]-3H-imidazo[4,5-b]pyridin-2-one] | 1.03 | 
27 | O=c1[nH]c2ncc(-c3cccc(C(F)F)c3)cc2n1Cc1ccccn1 [Example 287, 6-[3-(Difluoromethyl)phenyl]-1-(2-pyridylmethyl)-3H-imidazo[4,5-b]pyridin-2-one] | 0.107 | 

Source: patent US11759455B2, “Substituted 1H-imidazo[4,5-b]pyridin-2(3H)-ones and their use as GLUN2B receptor modulators” (JANSSEN PHARMACEUTICA NV, priority 2016, dated 2023)
